Earlier results in patent US20210316003A1 (Immunomedics, Inc., priority 2020, published 2021).
Read-outs that look alike come from different tables or passages of the source.

Key:
[1] = test system: patients with recurrent SCLC; details: nivolumab alone; cited from earlier work
[2] = test system: SCLC patients; details: 28 SCLC patients; cited from earlier work
[3] = test system: patients with relapsed SCLC; details: cited from earlier work
[4] = test system: patients; details: single-agent therapy; cited from earlier work
[5] = test system: patients with advanced colorectal cancer; details: cited from earlier work

For “Nivolumab: inhibitor of the T-cell checkpoint receptor PD-1”, the Response rate [1] is listed as 10%.

For `CC[C@@]1(O)C(=O)OCc2c1cc1n(c2=O)Cc2cc3c(CN(C)C)c(O)ccc3nc2-1` [topotecan], the Median survival [2] is listed as 5 months, the One-year survival [2] is listed as 3.5% and the PR [2] is listed as 11%. For the same compound, the “Grade ≥3 anemia” value ([3]; SCLC, meta-analysis) was 24%, the “Grade ≥3 neutropenia” value ([3]; SCLC, meta-analysis) was 69% and the “Grade ≥3 thrombocytopenia” value ([3]; SCLC, meta-analysis) was 1%. The “Patients who died from this chemotherapy” value ([3]; SCLC, meta-analysis) was “approximately 2%”, the Objective response rate ([3]; chemoresistant frontline SCLC patients) was 5% and the Objective response rate ([3]; chemosensitive SCLC patients) was 17%.

For `CCc1c2c(nc3ccc(OC(=O)N4CCC(N5CCCCC5)CC4)cc13)-c1cc3c(c(=O)n1C2)COC(=O)[C@]3(O)CC` [irinotecan], the “Grade ≥3 events of early diarrhea” value [4] is listed as 8%, the “Grade ≥3 events of late diarrhea” value [4] is listed as 31% and the Response ([5]; TDP1 IVS12+79 G/G genotype) is listed as 64%. The Response ([5]; TDP1 IVS12+79 T/T genotype) was 25%, the “Incidence of grade 3/4 neutropenia” value ([5]; TOP1 IVS4+61 A/A genotype (small sample size)) was 50% and the “Incidence of grade 3/4 neutropenia” value ([5]; TOP1 IVS4+61 G/G genotype) was 8%.
